Several values for one entry are separate records, joined by “and”; a condition that tells them apart may be missing. Equal values may be shown once. Read-outs that look alike come from different tables or passages of the source.
Tests used:
male F-344 rats = assay: Small Intestinal Transit (SIT) Rodent Model, charcoal meal; type: in vivo, rat; conditions: for Small intestinal transit, Mean (% of total small intestinal length): 15 min after charcoal meal
Source text: Specifically, the effects of MCI-225, the reference compounds (ondansetron and nisoxetine) and the vehicle on small intestinal transit were investigated in rats under control conditions. Following an overnight fast, rats were brought to the laboratory in their home cages and received an i.p. injection of one of the following: MCI-225, 100% propylene glycol (vehicle), ondansetron, nisoxetine and a combination of ondansetron and nisoxetine. Control rats received no treatment. The treated rats were placed back in the home cages and after 30 min, were fed a 2 mL charcoal meal via an oral gavage. Small intestinal transit was measured following 15 min test-period. Each rat was placed briefly in a glass chamber with IsoFlo for anesthesia and sacrificed. The stomach and the small intestine were removed and the total length of the small intestine was measured. Transit was then measured as the distance that the charcoal meal had traveled along the small intestine and expressed as % of the total length. Animals were randomly assigned to experimental groups and experiments were performed as illustrated in Table 3.
Small intestinal transit in rats was investigated by the passage of a charcoal meal along the small intestine during a defined time period (15-min). The animals were deprived of food for 12-16 hrs prior to the experiments. Rats were given a charcoal meal (a mixture of charcoal, gum arabic, and distilled water) as a 2 mL oral gavage and were sacrificed after a 15-min test period. The distance traveled by the charcoal meal was quantified as a percent of the small intestinal length, using the following equation:
Transit (%)=cm traveled by meal/cm total small intestinal length×100
Small intestinal transit was evaluated in relative units (%) of the total intestinal length in the following groups receiving different drug treatment: naïve (untreated), vehicle (propylene glycol, 200 μL i.p.), MCI-225 (3, 10 and 30 mg/kg, i.p.), nisoxetine (3, 10 and 30 mg/kg, i.p.), ondansetron (1, 5 and 10 mg/kg, i.p.) and a combination of nisoxetine (10 mg/kg, i.p.) and ondansetron (5 mg/kg, i.p.). A total of 61 experiments were performed (4-6 rats per group).

[1] = target: T1, dopamine reuptake ([^3H]DA uptake) (Rattus norvegicus, UniProt P23977); conditions: synaptosomes from rat striatal tissue; read-out: Ki, inhibition of [3H]DA uptake; cited from earlier work
T1 construct: the [^3H]DA uptake assays are performed on striatal synaptosomes; from tissue; host or cells: rat striatal synaptosomes (P2 fraction)
T1 sequence (P23977 whole entry): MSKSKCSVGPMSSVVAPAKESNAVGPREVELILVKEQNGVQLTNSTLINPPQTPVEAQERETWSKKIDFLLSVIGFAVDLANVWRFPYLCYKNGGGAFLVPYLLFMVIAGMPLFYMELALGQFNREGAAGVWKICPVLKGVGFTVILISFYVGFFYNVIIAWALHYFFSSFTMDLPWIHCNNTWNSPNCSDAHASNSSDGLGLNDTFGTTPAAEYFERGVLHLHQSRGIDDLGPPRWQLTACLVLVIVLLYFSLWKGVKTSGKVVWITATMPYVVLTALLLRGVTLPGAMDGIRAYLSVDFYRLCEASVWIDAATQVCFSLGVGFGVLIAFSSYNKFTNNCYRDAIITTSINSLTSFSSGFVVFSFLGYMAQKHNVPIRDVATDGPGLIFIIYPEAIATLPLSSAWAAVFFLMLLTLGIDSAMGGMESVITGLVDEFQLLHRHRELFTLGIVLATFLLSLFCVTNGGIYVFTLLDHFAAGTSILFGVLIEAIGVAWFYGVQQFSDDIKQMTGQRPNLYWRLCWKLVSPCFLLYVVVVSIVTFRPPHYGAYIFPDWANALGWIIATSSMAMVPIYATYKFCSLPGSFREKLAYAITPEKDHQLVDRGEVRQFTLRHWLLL

[2] = tested on: acetic acid sensitized male Fisher rats; assay: Visceromotor response to colorectal distension, acetic acid-induced colonic hypersensitivity; type: in vivo, rat; conditions: for visceromotor response (number of abdominal contractions) to CRD compared to vehicle: all doses i.p. (ondansetron 1, 5, 10 mg/kg; nisoxetine 3, 10, 30 mg/kg), all distension pressures
Method: The visceromotor behavioral response to colorectal distension was measured by counting the number of abdominal contractions recorded by a strain gauge sutured onto the abdominal musculature as described in Gunter et al., Physiol. […] A 5 cm latex balloon catheter inserted via the anal canal into the colon was used for colorectal distensions. Constant pressure tonic distensions were performed in a graded manner (15, 30 or 60 mmHg) and were maintained for a period of 10 min and the numbers of abdominal muscle contractions were recorded to measure the level of colonic sensation. A 10 min recovery was allowed between distensions.
J. Physiol. […] In the present study, a low concentration of acetic acid (1.5 ml, 0.6%) was administered intracolonically to sensitize the colon without causing histological damage to the colonic mucosa as described in previous studies (Gunter et al., supra).
Injection volume was 0.2 mL using 100% propylene glycol as the vehicle. Three consecutive colorectal distensions at 15, 30 or 60 mmHg applied at 10-min intervals were recorded. Visceromotor responses were evaluated as the number of abdominal muscle contractions recorded during the 10-min periods of colorectal distension.
Adult male rats were used in the study. […] Specifically, rats were anesthetized with Isoflurane (2%) and were instrumented with a strain gauge force transducer for recording of abdominal muscle contractions. A latex balloon and catheter were inserted 11 cm into the colon. The animals were allowed a 30-min period to completely recover from the anesthesia and were then subjected to intracolonic infusion of acetic acid (1.5 mL, 0.6%). An additional 30-min period was allowed for sensitization of the colon. […] The protocol for colorectal distension was initiated 30-min post drug administration. After a basal reading of the number of abdominal contractions with the balloon inserted but not distended, three consecutive 10-min lasting colorectal distensions at 15, 30, and 60 mmHg were applied at 10-min intervals. Colorectal sensitivity was evaluated by counting the number of reflex abdominal contractions (i.e. the visceromotor response) observed within each distension period.
Acetic acid-induced colonic hypersensitivity in rats has been described by Langlois et al. and Plourde et al., referenced above.
The visceromotor behavioral response to colorectal distension was measured by counting the number of abdominal contractions recorded by a strain gauge sutured onto the abdominal musculature as previously described Gunter et al., referenced above. Colorectal distensions were carried out utilizing a 5 cm latex balloon catheter inserted into the colon via the anal canal. Constant pressure tonic distensions were performed in a graded manner, i.e., the pressure was increased to the desired level of 15, 30, or 60 mmHg and then maintained for a period of 10 minutes during which the number of abdominal contractions were recorded to measure the level of colonic sensation. Ten minute recovery periods were allowed following each distension.

5-HT3 receptor = target: T2, 5-HT3 receptor (Mus musculus, UniProt P23979); conditions: radioligand binding; read-out: Ki, affinity for the 5-HT3 receptor; cited from earlier work
T2 construct: host or cells: N1E-115 mouse neuroblastoma cells
T2 sequence (P23979 24-489): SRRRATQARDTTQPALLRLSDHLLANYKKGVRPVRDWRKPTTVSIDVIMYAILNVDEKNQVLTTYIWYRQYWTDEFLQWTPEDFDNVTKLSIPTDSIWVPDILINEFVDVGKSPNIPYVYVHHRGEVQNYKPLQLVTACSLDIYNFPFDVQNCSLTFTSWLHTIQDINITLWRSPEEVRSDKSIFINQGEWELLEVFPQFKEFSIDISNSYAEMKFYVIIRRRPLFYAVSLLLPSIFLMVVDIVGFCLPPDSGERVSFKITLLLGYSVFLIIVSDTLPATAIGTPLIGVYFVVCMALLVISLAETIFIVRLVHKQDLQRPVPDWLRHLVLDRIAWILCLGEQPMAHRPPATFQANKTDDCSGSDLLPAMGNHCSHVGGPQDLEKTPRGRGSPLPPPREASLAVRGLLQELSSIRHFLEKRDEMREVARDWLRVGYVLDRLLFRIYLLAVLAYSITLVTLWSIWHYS

[3] = target: T3, noradrenaline transporter ([^3H]NA uptake) (Rattus norvegicus, UniProt Q9WTR4); conditions: read-out: Ki, inhibition of [3H]NA uptake, cited from earlier work
T3 construct: The [^3H]NA uptake assays are performed on the cortical and hypothalamic synaptosomes; from tissue; host or cells: rat hypothalamic and cortical synaptosomes (P2 fraction)
T3 sequence (Q9WTR4 1-597): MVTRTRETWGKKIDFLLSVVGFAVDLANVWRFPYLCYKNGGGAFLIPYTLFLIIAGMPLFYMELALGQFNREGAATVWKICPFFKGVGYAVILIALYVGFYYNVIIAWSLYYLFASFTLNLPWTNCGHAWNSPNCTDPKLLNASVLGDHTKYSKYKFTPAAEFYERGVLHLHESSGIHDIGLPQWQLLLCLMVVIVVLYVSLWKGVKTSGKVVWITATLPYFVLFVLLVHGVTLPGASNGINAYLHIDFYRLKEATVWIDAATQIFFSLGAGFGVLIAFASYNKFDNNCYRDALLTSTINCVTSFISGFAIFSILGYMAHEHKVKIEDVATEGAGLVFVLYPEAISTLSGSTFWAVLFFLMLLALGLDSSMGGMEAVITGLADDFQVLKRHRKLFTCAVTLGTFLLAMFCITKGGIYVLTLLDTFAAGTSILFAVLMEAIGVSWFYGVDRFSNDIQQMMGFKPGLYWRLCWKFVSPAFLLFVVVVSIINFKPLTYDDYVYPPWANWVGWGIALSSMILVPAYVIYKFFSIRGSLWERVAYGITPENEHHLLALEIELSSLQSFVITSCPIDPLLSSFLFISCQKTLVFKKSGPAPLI

[4] = target: T4, serotonin reuptake ([^3H]5-HT uptake) (Rattus norvegicus, UniProt P31652); conditions: cited from earlier work
T4 construct: The [^3H]5-HT uptake assays are performed on the cortical, hypothalamic and hippocampal synaptosomes; from tissue; host or cells: rat hypothalamic, cortical and hippocampal synaptosomes (P2 fraction)
T4 sequence (P31652 whole entry): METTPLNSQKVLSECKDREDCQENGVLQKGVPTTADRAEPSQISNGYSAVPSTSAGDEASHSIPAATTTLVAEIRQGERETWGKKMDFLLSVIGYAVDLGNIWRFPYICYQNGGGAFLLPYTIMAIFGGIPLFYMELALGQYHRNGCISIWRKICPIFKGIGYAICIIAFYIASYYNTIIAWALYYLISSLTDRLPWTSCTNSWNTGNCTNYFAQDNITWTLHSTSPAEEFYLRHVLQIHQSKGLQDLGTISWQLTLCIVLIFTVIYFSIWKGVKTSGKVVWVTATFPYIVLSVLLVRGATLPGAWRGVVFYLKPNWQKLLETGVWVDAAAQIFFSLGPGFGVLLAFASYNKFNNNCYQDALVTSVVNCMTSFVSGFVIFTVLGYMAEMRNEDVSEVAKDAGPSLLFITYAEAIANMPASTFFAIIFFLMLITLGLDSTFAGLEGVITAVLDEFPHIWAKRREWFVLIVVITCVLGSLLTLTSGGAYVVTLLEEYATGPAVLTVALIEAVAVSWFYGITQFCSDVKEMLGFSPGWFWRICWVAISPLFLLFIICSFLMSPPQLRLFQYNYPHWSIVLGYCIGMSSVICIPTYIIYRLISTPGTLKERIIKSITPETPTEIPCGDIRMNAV

[5] = tested on: male F-344 rats subjected to water avoidance stress; assay: Water Avoidance Stress (WAS) model, fecal pellet output; type: in vivo, rat; conditions: for number of fecal pellets produced during 1 hour of WAS compared to vehicle: all doses i.p. (MCI-225, nisoxetine 3, 10, 30 mg/kg; ondansetron 1, 5, 10 mg/kg)
Source text: The model used in this example provided a method of determining the ability of MCI-225 to normalize accelerated colonic transit induced by water avoidance stress (WAS). […] The model provides a method of evaluating the effectiveness of a compound in a specific patient group of IBS sufferers where stress induced colonic motility is considered a significant contributing factor. All rats underwent sham stress (1-hour in stress chamber without water) for 2-4 consecutive days before undergoing WAS (sham was performed until rats produced 0-1 pellet per hour for 2 consecutive days). At the end of the 1-hour stress period, the fecal pellets were counted and recorded. WAS causes an acceleration of colonic transit, which can be quantified by counting the number of fecal pellets, produced during the stress procedure. Rats were placed for 1-hour into a stress chamber onto a raised platform 7.5 cm×7.5 cm×9 cm (L×W×H) in the center of a stress chamber filled with room temperature water 8 cm in depth. The stress chamber was constructed from a rectangular plastic tub (40.2×60.2×31.2 cm). […] Ondansetron was supplied from APIN Chemicals LTD. […] MCI-225 was provided by Mitsubishi Pharma Corp. All drugs were dissolved in a vehicle of 100% propylene glycol (1,2-propanediol) by sonicating for a period of 10 minutes. Propylene glycol was obtained from Sigma Chemical Co. […] All drugs and the vehicle were administered as an i.p. injection in a volume of 0.2 mL.

Cc1cc2c(-c3ccccc3F)nc(N3CCNCC3)nc2s1 [MCI-225, 4-(2-fluorophenyl)-6-methyl-2-(1-piperazinyl)thieno[2,3-d]pyrimidine]
Small intestinal transit, Mean (% of total small intestinal length) (male F-344 rats; 3 mg/kg i.p.): 30.1%
Small intestinal transit, Mean (% of total small intestinal length) (male F-344 rats; 10 mg/kg i.p.): 4.2±2.6% and 4.2%
Small intestinal transit, Mean (% of total small intestinal length) (male F-344 rats; 30 mg/kg i.p.): 8.8%
Ki [1]: 14800 nM
animals in which the visceromotor response to CRD was eliminated ([2]; Example 1, 30 mg/kg i.p., n=6, CRD 15, 30, 60 mmHg): 50%
Ki (5-HT3 receptor): < 100 nM
Ki ([3]; synaptosomes from rat cortical tissue): 0.696 nM
Ki ([3]; synaptosomes from rat hypothalamic tissue): 35 nM
Ki ([4]; synaptosomes from rat cortical tissue, read-out: Ki, inhibition of [3H]5-HT uptake): 1070 nM
Ki ([4]; synaptosomes from rat hippocampal tissue, read-out: Ki, inhibition of serotonin uptake): 244 nM
Ki ([4]; synaptosomes from rat hypothalamic tissue, read-out: Ki, inhibition of [3H]5-HT uptake): 491 nM

CNCCC(Oc1ccccc1OC)c1ccccc1 (stereo not drawn) [Nisoxetine]
Small intestinal transit, Mean (% of total small intestinal length) (male F-344 rats; 3 mg/kg i.p.): 40.3%
Small intestinal transit, Mean (% of total small intestinal length) (male F-344 rats; 10 mg/kg i.p.): 38.6%
animals with charcoal meal completely retained in the stomach (male F-344 rats; 30 mg/kg i.p.): 4 out of 5
small intestinal transit (male F-344 rats; 30 mg/kg i.p.): almost completely inhibited
Small intestinal transit, Mean (% of total small intestinal length) (male F-344 rats; 30 mg/kg i.p.): 4.7%
small intestinal transit (male F-344 rats; 3 or 10 mg/kg i.p.): tendency to decrease
behavior in the home cage during the experiments ([2]; Example 2, 30 mg/kg i.p.): increased exploratory behavior
visceromotor response (number of abdominal contractions) to CRD compared to vehicle ([2]; Example 2): no significant effect
number of fecal pellets produced during WAS compared to vehicle ([5]; 10 and 30 mg/kg i.p.): significantly fewer
number of fecal pellets produced during 1 hour of WAS compared to vehicle [5]: reduced by all doses

Cc1nccn1CC1CCc2c(c3ccccc3n2C)C1=O (stereo not drawn) [Ondansetron]
Small intestinal transit, Mean (% of total small intestinal length) (male F-344 rats; 1 mg/kg i.p.): 27.6%
Small intestinal transit, Mean (% of total small intestinal length) (male F-344 rats; 5 mg/kg i.p.): 32.1%
Small intestinal transit, Mean (% of total small intestinal length) (male F-344 rats; 10 mg/kg i.p.): 18.4%%
small intestinal transit compared to vehicle (male F-344 rats; across doses i.p. (MCI-225 3, 10, 30 mg/kg; ondansetron 1, 5, 10 mg/kg)): significant reduction
advance of the charcoal meal from the stomach into the small intestine (male F-344 rats; doses tested i.p.): a portion of the charcoal meal was always found to advance
visceromotor response (number of abdominal contractions) to CRD compared to vehicle ([2]; Example 2): significant dose-dependent inhibition
changes in behavioral activity of the rats ([2]; Example 2, following treatment 1, 5 or 10 mg/kg i.p.): No significant changes
responses to moderate and high intraluminal pressure ([2]; Example 2, highest dose 10 mg/kg i.p., 30 and 60 mmHg, responses not abolished): reduced these responses to levels characteristic for naïve non-sensitized rats
number of fecal pellets produced during 1 hour of WAS compared to vehicle [5]: significantly less
